Results as given in the NIST ThermoML archive (doi:10.1016/j.tca.2013.03.025).
Numbers after ± are expanded uncertainties.

Assay: refractive index (Na D-line) (dimensionless); xn = mol fraction of the nth substance listed
Details: 101 kPa, Liquid, Standard Abbe refractometry

CCCCOC(=O)C(C)O (stereo not given) [butyl 2-hydroxypropanoate] + CC(O)CO
refractive index
Details	x1 = 0.0999	x1 = 0.2	x1 = 0.3	x1 = 0.3999	x1 = 0.4998	x1 = 0.6	x1 = 0.6996	x1 = 0.7999	x1 = 0.9	x1 = 1
288.15 K	1.43214 ± 0.00035	1.43049 ± 0.00037	1.42918 ± 0.0004	1.42809 ± 0.00043	1.42709 ± 0.00047	1.42629 ± 0.00051	1.42548 ± 0.00055	1.42482 ± 0.00059	1.42412 ± 0.00063	1.42379 ± 0.00068
293.15 K	1.43038 ± 0.00034	1.42865 ± 0.00037	1.42726 ± 0.0004	1.42611 ± 0.00043	1.42506 ± 0.00047	1.42421 ± 0.00051	1.42336 ± 0.00055	1.42266 ± 0.00059	1.42191 ± 0.00063	1.42152 ± 0.00068
298.15 K	1.42861 ± 0.00034	1.42683 ± 0.00037	1.42535 ± 0.0004	1.42414 ± 0.00043	1.42303 ± 0.00047	1.42211 ± 0.00051	1.42124 ± 0.00055	1.42048 ± 0.00059	1.4197 ± 0.00063	1.41925 ± 0.00068
303.15 K	1.42682 ± 0.00034	1.42494 ± 0.00037	1.4234 ± 0.0004	1.42214 ± 0.00043	1.42099 ± 0.00047	1.42002 ± 0.00051	1.4191 ± 0.00055	1.41831 ± 0.00059	1.41749 ± 0.00063	1.41697 ± 0.00068
308.15 K	1.42503 ± 0.00035	1.42307 ± 0.00037	1.42146 ± 0.0004	1.42013 ± 0.00043	1.41894 ± 0.00047	1.4179 ± 0.00051	1.41696 ± 0.00055	1.41611 ± 0.00059	1.41528 ± 0.00063	1.4147 ± 0.00068
313.15 K	1.42323 ± 0.00035	1.42118 ± 0.00037	1.4195 ± 0.0004	1.41814 ± 0.00043	1.41687 ± 0.00047	1.41575 ± 0.00051	1.41482 ± 0.00055	1.41392 ± 0.00059	1.41307 ± 0.00063	1.41241 ± 0.00068
318.15 K	1.42143 ± 0.00035	1.41927 ± 0.00037	1.41751 ± 0.0004	1.41605 ± 0.00043	1.41479 ± 0.00047	1.41365 ± 0.00051	1.41265 ± 0.00055	1.41169 ± 0.00059	1.41083 ± 0.00063	1.41006 ± 0.00068
323.15 K	1.41962 ± 0.00034	1.4173 ± 0.00037	1.41556 ± 0.0004	1.41404 ± 0.00043	1.41275 ± 0.00047	1.41156 ± 0.00051	1.41049 ± 0.00055	1.4095 ± 0.00059	1.40859 ± 0.00063	1.40778 ± 0.00068

CCCCOC(=O)C(C)O (stereo not given) [butyl 2-hydroxypropanoate] + OCCCO
refractive index
Details	x1 = 0.0999	x1 = 0.2	x1 = 0.3001	x1 = 0.4	x1 = 0.4999	x1 = 0.5999	x1 = 0.6996	x1 = 0.8001	x1 = 0.9	x1 = 1
288.15 K	1.43875 ± 0.00039	1.43674 ± 0.00042	1.43484 ± 0.00045	1.43308 ± 0.00048	1.43138 ± 0.00051	1.42969 ± 0.00054	1.42809 ± 0.00057	1.42652 ± 0.00061	1.4251 ± 0.00064	1.42379 ± 0.00068
293.15 K	1.43724 ± 0.00039	1.4351 ± 0.00042	1.43311 ± 0.00045	1.43126 ± 0.00048	1.42947 ± 0.00051	1.4277 ± 0.00054	1.42602 ± 0.00057	1.42438 ± 0.00061	1.4229 ± 0.00064	1.42152 ± 0.00068
298.15 K	1.43568 ± 0.00039	1.43346 ± 0.00042	1.43136 ± 0.00045	1.42942 ± 0.00048	1.42754 ± 0.00051	1.42569 ± 0.00054	1.42396 ± 0.00057	1.42225 ± 0.00061	1.4207 ± 0.00064	1.41925 ± 0.00068
303.15 K	1.43417 ± 0.00039	1.4318 ± 0.00042	1.4296 ± 0.00045	1.42758 ± 0.00048	1.42563 ± 0.00051	1.42369 ± 0.00054	1.42187 ± 0.00057	1.4201 ± 0.00061	1.4185 ± 0.00064	1.41697 ± 0.00068
308.15 K	1.43265 ± 0.00039	1.43015 ± 0.00042	1.42783 ± 0.00045	1.42571 ± 0.00048	1.42367 ± 0.00051	1.42167 ± 0.00054	1.4198 ± 0.00057	1.41796 ± 0.00061	1.41629 ± 0.00064	1.4147 ± 0.00068
313.15 K	1.43112 ± 0.00039	1.42848 ± 0.00042	1.42606 ± 0.00045	1.42385 ± 0.00048	1.42173 ± 0.00051	1.41964 ± 0.00054	1.4177 ± 0.00057	1.41579 ± 0.00061	1.41408 ± 0.00064	1.41241 ± 0.00068
318.15 K	1.4296 ± 0.00039	1.42681 ± 0.00042	1.42426 ± 0.00045	1.42197 ± 0.00048	1.41977 ± 0.00051	1.41759 ± 0.00054	1.41556 ± 0.00057	1.41358 ± 0.00061	1.41183 ± 0.00064	1.41006 ± 0.00068
323.15 K	1.42813 ± 0.00039	1.42537 ± 0.00042	1.42267 ± 0.00045	1.42009 ± 0.00048	1.41772 ± 0.00051	1.41555 ± 0.00054	1.41347 ± 0.00057	1.41153 ± 0.00061	1.40962 ± 0.00064	1.40778 ± 0.00068

CCCCOC(=O)C(C)O (stereo not given) [butyl 2-hydroxypropanoate] + CCCO
refractive index
Details	x1 = 0.1	x1 = 0.2	x1 = 0.3001	x1 = 0.3998	x1 = 0.5	x1 = 0.5999	x1 = 0.7001	x1 = 0.7996	x1 = 0.8998	x1 = 1
288.15 K	1.39449 ± 0.00035	1.4003 ± 0.00037	1.4052 ± 0.0004	1.40922 ± 0.00043	1.41285 ± 0.00047	1.41543 ± 0.00051	1.41816 ± 0.00055	1.42021 ± 0.00059	1.42209 ± 0.00063	1.42379 ± 0.00068
293.15 K	1.39238 ± 0.00035	1.39818 ± 0.00037	1.40305 ± 0.0004	1.40704 ± 0.00043	1.41067 ± 0.00047	1.41321 ± 0.00051	1.41593 ± 0.00055	1.41798 ± 0.00059	1.41984 ± 0.00063	1.42152 ± 0.00068
298.15 K	1.39028 ± 0.00035	1.39605 ± 0.00037	1.40088 ± 0.0004	1.40485 ± 0.00043	1.40846 ± 0.00047	1.41101 ± 0.00051	1.41369 ± 0.00055	1.41572 ± 0.00059	1.41758 ± 0.00063	1.41925 ± 0.00068
303.15 K	1.38813 ± 0.00035	1.39389 ± 0.00037	1.3987 ± 0.0004	1.40265 ± 0.00043	1.40623 ± 0.00047	1.40877 ± 0.00051	1.41144 ± 0.00055	1.41346 ± 0.00059	1.4153 ± 0.00063	1.41697 ± 0.00068
308.15 K	1.38599 ± 0.00035	1.3917 ± 0.00037	1.39651 ± 0.0004	1.40042 ± 0.00043	1.40398 ± 0.00047	1.40652 ± 0.00051	1.40919 ± 0.00055	1.4112 ± 0.00059	1.41304 ± 0.00063	1.41469 ± 0.00068
313.15 K	1.38382 ± 0.00035	1.38951 ± 0.00037	1.39427 ± 0.0004	1.3982 ± 0.00043	1.4017 ± 0.00047	1.40425 ± 0.00051	1.40691 ± 0.00055	1.40893 ± 0.00059	1.41077 ± 0.00063	1.4124 ± 0.00068
318.15 K	1.3816 ± 0.00035	1.38726 ± 0.00037	1.39198 ± 0.0004	1.39591 ± 0.00043	1.39938 ± 0.00047	1.40195 ± 0.00051	1.40455 ± 0.00055	1.40658 ± 0.00059	1.40842 ± 0.00063	1.41005 ± 0.00068
323.15 K	1.37938 ± 0.00035	1.38505 ± 0.00037	1.38973 ± 0.0004	1.39364 ± 0.00043	1.3971 ± 0.00047	1.39967 ± 0.00051	1.40228 ± 0.00055	1.40433 ± 0.00059	1.40617 ± 0.00063	1.40778 ± 0.00068
